Test results from publication PMC9320114 (Molecules, 2022).
Where two headings read alike, the source gives them in different places.

What was measured:
hMAO-A = target: T1, hMAO-A (Homo sapiens, UniProt P21397); test: Inhibition of hMAO-A, fluorimetric Amplex Red assay; format: biochemical; details: residual activity at 10 µM
T1 construct: purchased Sigma Aldrich; host or cells: BTI-TN-5B1-4 baculovirus-infected insect cells
T1 sequence (P21397 1-527): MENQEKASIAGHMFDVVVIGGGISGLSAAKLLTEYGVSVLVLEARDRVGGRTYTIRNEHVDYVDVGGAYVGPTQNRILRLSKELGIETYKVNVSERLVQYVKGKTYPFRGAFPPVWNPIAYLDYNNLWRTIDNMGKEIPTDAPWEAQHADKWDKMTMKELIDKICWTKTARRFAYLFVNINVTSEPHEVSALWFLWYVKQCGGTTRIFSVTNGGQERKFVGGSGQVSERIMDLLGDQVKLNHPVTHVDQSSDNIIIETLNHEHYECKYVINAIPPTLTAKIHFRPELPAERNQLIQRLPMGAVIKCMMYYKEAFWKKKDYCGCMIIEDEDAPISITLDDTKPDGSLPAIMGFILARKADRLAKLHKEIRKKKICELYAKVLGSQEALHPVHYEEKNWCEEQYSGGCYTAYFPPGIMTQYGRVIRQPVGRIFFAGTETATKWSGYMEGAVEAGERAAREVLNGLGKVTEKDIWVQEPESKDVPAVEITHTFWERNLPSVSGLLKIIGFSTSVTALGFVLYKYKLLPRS
Protocol: The effects of the compounds on hMAO-A and hMAO-B were investigated using a fluorimetric assay, following a method previously described in the literature. Recombinant human microsomal hMAO enzymes expressed in BTI-TN-5B1-4 baculovirus-infected insect cells, horseradish peroxidase (HRP, type II, lyophilized powder), and p-tyramine hydrochloride were purchased from Sigma Aldrich. 10-Acetyl-3,7-dihydroxyphenoxazine (Amplex Red reagent) was synthesized as described in the literature.
Briefly, 100 µL of 50 mM sodium phosphate buffer (pH 7.4, 0.05% (v/v) Triton X-114), containing the compounds and hMAO-A or hMAO-B, was incubated for 15 min at 37 °C in a flat-bottomed black 96-well microplate protected from ambient light. After preincubation, the reaction was started by adding final concentrations of 200 µM Amplex Red reagent, 2 U/mL HRP, and 1 mM p-tyramine hydrochloride. Resorufin production was quantified based on the fluorescence produced (λex = 530 nm; λem = 590 nm) at 37 °C over a 20 min period. For the control experiments, DMSO was used instead of appropriate dilutions of the compounds in DMSO. For the determination of blank (b), the enzyme solution was replaced by a phosphate-buffered solution. Initial velocities were calculated from the obtained trend, with each measurement performed in duplicate. Specific fluorescence emission to determine the final results was calculated after subtracting the blank activity (b). Inhibitory potencies were expressed as RAs, and IC50 values were calculated as described in the section “Inhibition of hBChE and mAChE” above.

MurC = MurC (Escherichia coli, UniProt P17952); test: Inhibition of MurC, colorimetric malachite green method; format: biochemical, bacterial; details: for remaining activity at 50 µM / remaining activity at 100 µM: 0.25 h; for remaining activity at 50 µM: read-out: MurC (RA [%]); for remaining activity at 100 µM: residual activity at 100 µM, read-out: MurC RA (%)
Protocol: (§1) Inhibition of Mur enzymes was monitored with the colorimetric malachite green method, which measured orthophosphate formed during reaction. The mixtures with a final volume of 50 µL contained:
MurC: 50 mM HEPES-NaOH, pH 8.0, 5 mM MgCl2, 0.005% Triton X-114, 120 µM L-Ala, 120 µM UDP-N-acetyl-muramic acid, 450 µM ATP, purified MurC, and 50 or 100 µM of each compound tested.
(§2) All compounds were soluble in the assay mixtures containing 5% DMSO (v/v). After incubation for 15 min (20 min for DdlB) at 37 °C, the enzyme reaction was terminated by addition of Biomol® reagent (100 µL) and absorbance was measured after 5 min at 650 nm (Synergy™ H4 microplate reader; BioTek Instruments, Inc., BioTek Gen5 Data Analysis Software, version 2.9, Santa Clara, CA, USA). All experiments were performed in duplicate.

DdlB = DdlB (Escherichia coli, UniProt P07862); test: Inhibition of DdlB, colorimetric malachite green method; format: biochemical, bacterial; details: 20 min, read-out: DdlB (RA [%])
Protocol: as §1
DdlB: 50 mM HEPES-NaOH, pH 8.0, 5 mM MgCl2, 6.5 mM (NH4)2SO4, 10 mM KCl, 0.005% Triton X-114, 700 µM D-Ala, 500 µM ATP, purified DdlB, and 50 µM of each compound tested.
as §2

[1] = Mini Library screen, Table S1, read-out: hMAO-A (RA [%])
[2] = Table 3, read-out: hMAO-A RA (%)

MurC, sequence (P17952 whole entry): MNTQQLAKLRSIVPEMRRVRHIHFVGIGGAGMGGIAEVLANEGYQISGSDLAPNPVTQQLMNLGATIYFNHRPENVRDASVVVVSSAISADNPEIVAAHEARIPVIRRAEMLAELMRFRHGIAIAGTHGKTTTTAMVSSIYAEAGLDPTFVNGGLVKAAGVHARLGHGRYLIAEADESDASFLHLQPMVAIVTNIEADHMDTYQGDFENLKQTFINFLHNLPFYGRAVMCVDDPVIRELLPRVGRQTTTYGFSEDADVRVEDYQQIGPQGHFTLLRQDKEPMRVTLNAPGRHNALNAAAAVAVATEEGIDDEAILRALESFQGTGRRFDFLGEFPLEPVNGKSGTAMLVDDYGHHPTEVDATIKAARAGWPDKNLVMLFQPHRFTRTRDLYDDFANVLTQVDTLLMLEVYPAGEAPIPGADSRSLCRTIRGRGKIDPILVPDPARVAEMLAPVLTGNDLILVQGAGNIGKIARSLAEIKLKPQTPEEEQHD

| SMILES | remaining activity at 10 µM (hMAO-A; [1]) | remaining activity at 50 µM (MurC) | remaining activity at 50 µM (DdlB) | remaining activity at 10 µM (hMAO-A; [2]) | hMAO-A RA [%] (hMAO-A; Table S3) | IC50 (MurC) | remaining activity at 100 µM (MurC; Table 2) | IC50 (MurC; Table 2, IC50 ± SEM, read-out: MurC IC50) |
| --- | --- | --- | --- | --- | --- | --- | --- | --- |
| C1=C(c2ccccc2)CCN(CCCCc2c[nH]c3ccccc23)C1 [MS-ML10] | 75% | 74% | 96% |  |  |  |  |  |
| O=C(Nc1ccc(Oc2ccncc2)cc1)Nc1cc(C(F)(F)F)ccc1-n1cncn1 [MS-ML80] | 82% | 96% | 94% | 78% |  |  |  |  |
| O=C(OC[C@H]1CCCN1c1ccnc2ncnn12)c1ccc(Oc2ccccc2)nc1 [MS-ML31] | 78% | 94% | 98% | 98% | 98% |  |  |  |
| Oc1ccc2[nH]cc(CCCCN3CC=C(c4ccccc4)CC3)c2c1 [MS-ML11] | 31% | 89% | 95% |  |  |  |  |  |
| CCCCCCN(Cc1ccc(C#Cc2ccc(CCCC)cc2)cc1)c1ccc(F)c(C(=O)O)c1 [MS-ML26] | 60% | 73% | 114% |  |  |  |  |  |
| CCCCCCN(Cc1ccc(C#Cc2ccc(CCCC)cc2)cc1)C(=O)c1ccc(O)c(C(=O)O)c1 [MS-ML25] | 73% | 98% | 114% |  |  |  |  |  |
| CCCCc1nc2ccn(Cc3ccccc3)c(=O)c2n1Cc1ccc(-c2ccccc2-c2nnn[nH]2)cc1 [MS-ML03] | 83% | 61% | 81% |  |  | 85 ± 15 µM | 40% |  |
| CCCCCCN(Cc1ccc(C#Cc2ccc(CCCC)cc2)cc1)c1ccc(O)c(C(=O)O)c1 [MS-ML24] | 57% | 83% | 116% |  |  |  |  |  |
| CCCCc1nc2ccn(CC(=O)N3CCCCC3)c(=O)c2n1Cc1ccc(-c2ccccc2S(=O)(=O)NC(=O)OCc2ccccc2)cc1F [MS-ML05] | 79% | 55% | 91% |  |  |  | 32% | 101 ± 23 µM |
